In patent US10301280B2 (Plexxikon Inc., priority 2012, dated 2019) one finds IC50 data, which are given here for 21 compounds.

By IC50 is commonly meant the concentration that inhibits the measured activity by half. Low values mean greater potency in that assay, high ones weaker potency in that assay.

Molecules are shown by their SMILES.

Chain of c-kit mutant D816V (P10721 other isoform, or with tags, fused parts or gaps D816V/del 694-753): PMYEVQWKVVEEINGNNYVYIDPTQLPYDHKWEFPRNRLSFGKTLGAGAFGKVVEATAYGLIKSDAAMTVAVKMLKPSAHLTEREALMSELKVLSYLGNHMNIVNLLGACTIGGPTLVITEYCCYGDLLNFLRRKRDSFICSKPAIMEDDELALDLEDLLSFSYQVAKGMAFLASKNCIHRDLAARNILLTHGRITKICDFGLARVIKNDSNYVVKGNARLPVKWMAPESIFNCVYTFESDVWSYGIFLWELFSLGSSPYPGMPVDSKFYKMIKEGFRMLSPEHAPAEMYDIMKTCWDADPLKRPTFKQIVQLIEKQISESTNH

This assay concerns the target c-kit mutant D816V (Homo sapiens (Human), UniProt P10721, D816V/DEL694-753). In words: c-Kit mutant D816V biochemical assay (AlphaScreen). Conditions: c-kit D816V biochemical inhibitory activity. In a few lines: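 His-tagged c-Kit D816V kinase domain (551-934, Δ694-753, E. coli) phosphorylating 30 nM biotin-(E4Y)10 at 10 μM ATP in HEPES pH 7.2 with Mg/Mn, 5% DMSO, 30 min at room temperature. PY20-acceptor/streptavidin-donor AlphaScreen detection after EDTA stop. IC50 from 8-point 1:3 titration.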
For orientation: Alpha assays give light when donor and acceptor beads are brought close together.
`O=C(Nc1cnc2[nH]c(-c3ccccc3)cc2c1)c1[nH]ncc1Br` [P-2005, 4-bromo-N-(2-phenyl-1H-pyrrolo[2,3-b]pyridin-5-yl)-1H-pyrazole-5-carboxamide] returned a half-inhibitory concentration (IC50) of 0.0001 to 1 µM. For the compound `Cc1n[nH]c(C(=O)Nc2cnc3[nH]c(-c4ccccc4)cc3c2)c1C` [P-2007, 3,4-dimethyl-N-(2-phenyl-1H-pyrrolo[2,3-b]pyridin-5-yl)-1H-pyrazole-5-carboxamide], the IC50 was 0.0001 to 1 µM. Then `Cc1[nH]nc(C(=O)Nc2cnc3[nH]c(-c4ccc(N5CCOCC5)cc4)cc3c2)c1C` [P-2059, 4,5-dimethyl-N-[2-(4-morpholinophenyl)-1H-pyrrolo[2,3-b]pyridin-5-yl]-1H-pyrazole-3-carboxamide], with 0.0001 to 1 µM; and `Cc1n[nH]c(C(=O)Nc2cnc3[nH]c(C4=CCN(C(=O)C5CC5)C4)cc3c2)c1Cl` [P-2060, 4-chloro-N-[2-[1-(cyclopropanecarbonyl)-2,5-dihydropyrrol-3-yl]-1H-pyrrolo[2,3-b]pyridin-5-yl]-3-methyl-1H-pyrazole-5-carboxamide], with 0.0001 to 1 µM; and `CC(=O)N1CC=C(c2cc3cc(NC(=O)c4[nH]nc(C)c4Cl)cnc3[nH]2)CC1` [P-2061, N-[2-(1-acetyl-3,6-dihydro-2H-pyridin-4-yl)-1H-pyrrolo[2,3-b]pyridin-5-yl]-4-chloro-3-methyl-1H-pyrazole-5-carboxamide], with 0.0001 to 1 µM.

Compound `Cc1n[nH]c(C(=O)Nc2cnc3[nH]c(C4=CCN(C(=O)N5CCOCC5)C4)cc3c2)c1Cl` [P-2062, 4-chloro-3-methyl-N-[2-[1-(morpholine-4-carbonyl)-2,5-dihydropyrrol-3-yl]-1H-pyrrolo[2,3-b]pyridin-5-yl]-1H-pyrazole-5-carboxamide] yielded an IC50 of 0.0001 to 1 µM.

`Cc1n[nH]c(C(=O)Nc2cnc3[nH]c(-c4cccc(N(C)C)c4)cc3c2)c1C` [P-2064, N-[2-[3-(dimethylamino)phenyl]-1H-pyrrolo[2,3-b]pyridin-5-yl]-3,4-dimethyl-1H-pyrazole-5-carboxamide] registered an IC50 of 0.0001 to 1 µM.

As to `Cc1n[nH]c(C(=O)Nc2cnc3[nH]c(-c4c(C)noc4C)cc3c2)c1C` [P-2065, N-[2-(3,5-dimethylisoxazol-4-yl)-1H-pyrrolo[2,3-b]pyridin-5-yl]-3,4-dimethyl-1H-pyrazole-5-carboxamide], the IC50 was in the range of 0.0001 to 1 µM. Then `CNC(=O)c1ccc(-c2cc3cc(NC(=O)c4[nH]nc(C)c4C)cnc3[nH]2)cc1` [P-2067, 3,4-dimethyl-N-[2-[4-(methylcarbamoyl)phenyl]-1H-pyrrolo[2,3-b]pyridin-5-yl]-1H-pyrazole-5-carboxamide], with 0.0001 to 1 µM; and `Cc1[nH]nc(C(=O)Nc2cnc3[nH]c(-c4ccnc(N5CCN(C)CC5)c4)cc3c2)c1C` [P-2069, 4,5-dimethyl-N-[2-[2-(4-methylpiperazin-1-yl)-4-pyridyl]-1H-pyrrolo[2,3-b]pyridin-5-yl]-1H-pyrazole-3-carboxamide], with 0.0001 to 1 µM; and `Cc1[nH]nc(C(=O)Nc2cnc3[nH]c(-c4cccc(N5CCOCC5)c4)cc3c2)c1C` [P-2070, 4,5-dimethyl-N-[2-(3-morpholinophenyl)-1H-pyrrolo[2,3-b]pyridin-5-yl]-1H-pyrazole-3-carboxamide], with 0.0001 to 1 µM. The value for `Cc1n[nH]c(C(=O)Nc2cnc3[nH]c(C4=CCN(C(=O)CN5CCOCC5)CC4)cc3c2)c1C` [P-2073, 3,4-dimethyl-N-[2-[1-(2-morpholinoacetyl)-3,6-dihydro-2H-pyridin-4-yl]-1H-pyrrolo[2,3-b]pyridin-5-yl]-1H-pyrazole-5-carboxamide] was 0.0001 to 1 µM; that for `Cc1n[nH]c(C(=O)Nc2cnc3[nH]c(C4=CCN(C(=O)C(O)CO)CC4)cc3c2)c1C` (stereo not drawn) [P-2074, N-[2-[1-(2,3-dihydroxypropanoyl)-3,6-dihydro-2H-pyridin-4-yl]-1H-pyrrolo[2,3-b]pyridin-5-yl]-3,4-dimethyl-1H-pyrazole-5-carboxamide] was 0.0001 to 1 µM; that for `Cc1n[nH]c(C(=O)Nc2cnc3[nH]c(-c4cccc(N5CCCC5)c4)cc3c2)c1C` [P-2079, 3,4-dimethyl-N-[2-(3-pyrrolidin-1-ylphenyl)-1H-pyrrolo[2,3-b]pyridin-5-yl]-1H-pyrazole-5-carboxamide] was 0.0001 to 1 µM.

For `Cc1n[nH]c(C(=O)Nc2cnc3[nH]c(C4=CCC(N)CC4)cc3c2)c1C` (stereo not drawn) [P-2080, N-[2-(4-aminocyclohexen-1-yl)-1H-pyrrolo[2,3-b]pyridin-5-yl]-3,4-dimethyl-1H-pyrazole-5-carboxamide], the IC50 lay in the range of 0.0001 to 1 µM. Then `Cc1n[nH]c(C(=O)Nc2cnc3[nH]c(-c4ccc(C#N)c(N5CCOCC5)c4)cc3c2)c1C` [P-2081, N-[2-(4-cyano-3-morpholino-phenyl)-1H-pyrrolo[2,3-b]pyridin-5-yl]-3,4-dimethyl-1H-pyrazole-5-carboxamide], with 0.0001 to 1 µM; and `Cc1n[nH]c(C(=O)Nc2cnc3[nH]c(-n4cccn4)cc3c2)c1C` [P-2112, 3,4-dimethyl-N-(2-pyrazol-1-yl-1H-pyrrolo[2,3-b]pyridin-5-yl)-1H-pyrazole-5-carboxamide], with 0.0001 to 1 µM; and `Cc1cc(C(=O)Nc2cnc3[nH]c(-n4cccn4)cc3c2)[nH]n1` [P-2116, 3-methyl-N-(2-pyrazol-1-yl-1H-pyrrolo[2,3-b]pyridin-5-yl)-1H-pyrazole-5-carboxamide], with 1 to 10 µM. The value for `Cc1n[nH]c(C(=O)Nc2cnc3[nH]c(-c4cccc(N5CCN(C(=O)C6CC6)CC5)c4)cc3c2)c1C` [P-2118, N-[2-[3-[4-(cyclopropanecarbonyl)piperazin-1-yl]phenyl]-1H-pyrrolo[2,3-b]pyridin-5-yl]-3,4-dimethyl-1H-pyrazole-5-carboxamide] was 0.0001 to 1 µM; that for `Cc1n[nH]c(C(=O)Nc2cnc3sc(-c4ccccc4)nc3c2)c1C` [P-2144, 3,4-dimethyl-N-(2-phenylthiazolo[5,4-b]pyridin-6-yl)-1H-pyrazole-5-carboxamide] was 1 to 10 µM. `Cc1n[nH]c(C(=O)Nc2cnc3[nH]c(-c4ccc(C(=O)NC5CC5)cc4)cc3c2)c1C` [P-2148, N-[2-[4-(cyclopropylcarbamoyl)phenyl]-1H-pyrrolo[2,3-b]pyridin-5-yl]-3,4-dimethyl-1H-pyrazole-5-carboxamide]: the IC50 fell in the range of 0.0001 to 1 µM.
